Measured values published in patent US6228877A, “Substituted pyrroles” (Hoffmann-La Roche Inc., priority 1998, dated 2001).

The compounds below were run on epithelial breast carcinoma cell line (MDAMB-435) (assay: effect of compounds on growth of epithelial breast carcinoma cell line MDAMB-435 (MTT, 5 days)). Details: Homo sapiens, MDA-MB-435, 120 h, MDAMB-435 cells, 5 days post drug addition, 0.1% DMSO.
Assay type: cell-based
Description: The epithelial breast carcinoma cell line (MDAMB-435) was purchased from ATCC (American Type Cell Culture Collection) and was grown in culture in medium as recommended by ATCC. For analysis of the effect of various compounds on growth of these cells, the cells were plated at a concentration of 1500 cells/well in a 96 well tissue culture plate ("test plate). The day after the cells were plated, the compounds to be analyzed were dissolved in 100% DMSO (dimethyl sulfoxide) to yield at 10 mM stock solution. Each compound was diluted in H2 O to 1 mM and was added to triplicate wells in the first row of a 96 well master plate which contains medium to yield a final concentration of 40 μM. The compounds were then serially diluted in medium in the "master plate". The diluted compound(s) were then transferred to test plates containing cells. A row of vehicle "control cells" received DMSO. The final concentration of DMSO in each well was 0.1%. 5 days post drug addition, the plate was analyzed as follows:
MTT (3-(4-5 methyl thiazole-2-yl)-2,5-diphenyl tetrazolium bromide; thiazolyl blue) was added to each well to yield a final concentration of 1 mg/ml. The plate was then incubated at 37° C. for 21/2-3 hours. The MTT containing medium was then removed and 50 μl of 100% ethanol was added to each well to dissolve the formazan. The absorbences were then read using an automated plate reader (Bio-tek microplate reader).
IC50 's were calculated using the Reed and Munsch equation, see Am. J. Hygiene Vol. 27 pgs. 493-497, 1938.

Row | Structure (SMILES) | IC50 [nM]
1 | COC(=O)c1ccc2c(C3=C(c4cn(C)c5cc(N)ccc45)C(=O)NC3=O)cn(C)c2c1 [H H NH2 CO2 CH3, 3-[4-(6-Amino-1-methyl-1H-indol-3-yl)-2,5-dioxo-2,5-dihydro-1H-pyrrol-3-yl] -1-methyl-1H-indole-6-carboxylic acid methyl ester] | 50
2 | CCOc1ccc2c(C3=C(c4cn(C)c5cc(N)ccc45)C(=O)NC3=O)cn(C)c2c1 [H H NH2 EtO] | 12
3 | Cn1cc(C2=C(c3cn(C)c4cc([N+](=O)[O-])ccc34)C(=O)NC2=O)c2ccc(N)cc21 [H H NH2 NO2, 3-(6-Amino-1-methyl-1H-indol-3-yl)-4-(1-methyl-6-nitro-1H-indol-3-yl)-pyrrole-2,5-dione] | < 10
4 | Cn1cc(C2=C(c3cn(C)c4cc([N+](=O)[O-])ccc34)C(=O)NC2=O)c2ccc(Cl)cc21 [H H NO2 Cl, 3-(6-chloro-1-methyl-1H-indol-3-yl)-4-(1-methyl-6-nitro-1H-indol-3-yl)-pyrrole-2,5-dione] | 70
5 | Cn1cc(C2=C(c3cn(C)c4cc([N+](=O)[O-])ccc34)C(=O)NC2=O)c2ccc(F)cc21 [H H NO2 F, 3-(6-fluoro-1-methyl-1H-indol-3-yl)-4-(1-methyl-6-nitro-1H-indol-3-yl)-pyrrole-2,5-dione] | 70
6 | Cn1cc(C2=C(c3cn(C)c4cc([N+](=O)[O-])ccc34)C(=O)NC2=O)c2ccc([N+](=O)[O-])cc21 [H H NO2 NO2, 3,4-Bis-(1-methyl-6-nitro-1H-indol-3-yl)-pyrrole-2,5-dione] | 70
7 | Cn1cc(C2=C(c3cn(C)c4cc([N+](=O)[O-])ccc34)C(=O)NC2=O)c2ccc(OCc3ccccc3)cc21 [H H NO2 Obenzyl, 3-(6-benzyloxy-1-methyl-1H-indol-3-yl)-4-(1-methyl-6-nitro-1H-indol-3-yl)-pyrrole-2,5-dione] | 90
8 | CSc1ccc2c(C3=C(c4cn(C)c5cc([N+](=O)[O-])ccc45)C(=O)NC3=O)cn(C)c2c1 [H H NO2 SCH3, 3-(1-Methyl-6-methylsulfanyl-1H-indol-3-yl)-4-(1-methyl-6-nitro-1H-indol-3-yl)-pyrrole-2,5-dione] | 9
9 | COc1ccc2c(C3=C(c4cn(C)c5cc([N+](=O)[O-])ccc45)C(=O)NC3=O)cn(C)c2c1 [H H OCH3 NO2, 3-(6-methoxy-1-methyl-1H-indol-3-yl)-4-(1-methyl-6-nitro-1H-indol-3-yl)-pyrrole-2,5-dione] | 7
10 | COc1ccc2c(C3=C(c4cn(C)c5cc(OC)ccc45)C(=O)NC3=O)cn(C)c2c1 [H H OCH3 OCH3, 3,4-Bis-(6-methoxy-1-methyl-1H-indol-3-yl)-pyrrole-2,5-dione] | 5
11 | Cn1cc(C2=C(c3cn(C)c4cc([N+](=O)[O-])ccc34)C(=O)NC2=O)c2cc([N+](=O)[O-])ccc21 [H NO2 H NO2, 3-(1-methyl-5-nitro-1H-indol-3-yl)-4-(1-methyl-6-nitro-1H-indol-3-yl)-pyrrole-2,5-dione] | 830

Other lines, results leading:

Row | IC50 [nM] | Structure (SMILES)
12 | 4 | Cn1cc(C2=C(c3cn(C)c4cc(Br)ccc34)C(=O)NC2=O)c2ccc(N)cc21 [H H NH2 Br, 3-(6-Amino-1-methyl-1H-indol-3-yl)-4-(6-bromo-1-methyl-1H-indol-3-yl)-pyrrole-2,5-dione]
13 | 15 | COc1ccc2c(C3=C(c4cn(C)c5cc(N)ccc45)C(=O)NC3=O)cn(C)c2c1 [H H NH2 CH3 O, 3-(6-Amino-1-methyl-1H-indol-3-yl)-4-(6-methoxy-1-methyl-1H-indol-3-yl)-pyrrole-2,5-dione]
14 | < 10 | Cn1cc(C2=C(c3cn(C)c4cc(C#N)ccc34)C(=O)NC2=O)c2ccc(N)cc21 [H H NH2 CN, 3-[4-(6-Amino-1-methyl-1H-indol-3-yl)-2,5-dioxo-2,5-dihydro-1H-pyrrol-3-yl]-1-methyl-1H-indole-6-carbonitrile]
15 | 12 | Cn1cc(C2=C(c3cn(C)c4cc(Cl)ccc34)C(=O)NC2=O)c2ccc(N)cc21 [H H NH2 Cl, 3-(6-Amino-1-methyl-1H-indol-3-yl)-4-(6-chloro-1-methyl-1H-indol-3-yl)-pyrrole-2,5-dione]
16 | 42 | Cn1cc(C2=C(c3cn(C)c4cc(F)ccc34)C(=O)NC2=O)c2ccc(N)cc21 [H H NH2 F, 3-(6-Amino-1-methyl-1H-indol-3-yl)-4-(6-fluoro-1-methyl-1H-indol-3-yl)-pyrrole-2,5-dione]
17 | 700 | Cn1cc(C2=C(c3cn(C)c4cc(N)ccc34)C(=O)NC2=O)c2ccc(N)cc21 [H H NH2 NH2, 3,4-bis-(1-methyl-6-amino-1H-indol-3-yl)-pyrrole-2,5-dione]
